Some test systems named below: MCF7 breast; MOLT-4 leukemia; ACHN renal; UACC-62 melanoma; T-47D breast; HOP-62 NSCLC; SF-295 CNS; EKVX NSCLC; RPMI-8226 leukemia; UO-31 renal; PC-3 prostate; SK-OV-3 ovarian; SNB-19 CNS; BT-549 breast; M14 melanoma; HT29 colon; HCC-2998 colon; SF-268 CNS; NCI-H226 lung.
Common to all, as to experiment: inhibition of tumour cell growth, NCI panel, 48 h

SMILES strings stand for the structures.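 Five concentrations, 48 hours, 96-well plates. Definition used: TGI = concentration required for complete inhibition of growth.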 A value given as a limit tells only on which side of the number the result lay.

On to `CCOC(=O)c1cccn1S(=O)(=O)c1cc(Cl)ccc1NC(=O)CC`, for which the TGI in the assay with MCF7 breast, in the assay on MOLT-4 leukemia, with ACHN renal, in the assay with UACC-62 melanoma, in the assay with T-47D breast and with HOP-62 NSCLC was greater than 100 µM throughout. Also, the TGI in the assay with SF-295 CNS was greater than 100 µM; in the assay on EKVX NSCLC, greater than 100 µM; with RPMI-8226 leukemia, greater than 100 µM; in the assay on UO-31 renal, 54 µM; with PC-3 prostate it was greater than 100 µM; with SK-OV-3 ovarian it was greater than 100 µM. Besides, the TGI in the assay on SNB-19 CNS and in the assay with BT-549 breast was greater than 100 µM throughout.
As to `O=C(CN1CCCCC1)Nc1ccc2sc3ccccc3c(=O)c2n1`, the TGI with MCF7 breast is 77.9 µM; in the assay with MOLT-4 leukemia, 30 µM; in the assay on ACHN renal, 33.4 µM; in the assay on UACC-62 melanoma, 30.1 µM; in the assay on T-47D breast, greater than 100 µM; in the assay on M14 melanoma, 41.4 µM. For the same molecule, the TGI is 33.3 µM in the assay on HOP-62 NSCLC; 36.6 µM in the assay on SF-295 CNS; greater than 100 µM with HT29 colon; 89.3 µM in the assay with EKVX NSCLC; 45.1 µM with RPMI-8226 leukemia; 21.6 µM in the assay with UO-31 renal. The TGI is 50.1 µM in the assay on PC-3 prostate; 36.8 µM with HCC-2998 colon; 48.9 µM in the assay with SK-OV-3 ovarian; 59.8 µM in the assay with SNB-19 CNS; 43.1 µM in the assay with BT-549 breast; 74.3 µM in the assay on SF-268 CNS.
Regarding `COc1ccc(Nc2nnc(-c3nsc4ccccc34)s2)cc1`, the TGI with MCF7 breast, in the assay on MOLT-4 leukemia, in the assay with ACHN renal, with NCI-H226 lung, with UACC-62 melanoma and in the assay with T-47D breast was greater than 100 µM in each case. Further, the TGI with M14 melanoma is greater than 100 µM; in the assay with HOP-62 NSCLC it was 36.1 µM; in the assay on SF-295 CNS it was greater than 100 µM; in the assay with HT29 colon, greater than 100 µM; with EKVX NSCLC it was greater than 100 µM; in the assay with RPMI-8226 leukemia, greater than 100 µM. The TGI with UO-31 renal was 35 µM; with PC-3 prostate, greater than 100 µM; with HCC-2998 colon, greater than 100 µM; in the assay with SK-OV-3 ovarian, 19 µM; in the assay with SNB-19 CNS it was greater than 100 µM; with SF-268 CNS, greater than 100 µM.
For `COC1=C(OC)C(=O)C(Cc2c(Cl)nc3sc(C)cn23)=C(C)C1=O`, the TGI is 63.5 µM with MCF7 breast; 4.21 µM in the assay with MOLT-4 leukemia; 40 µM with ACHN renal; 25.6 µM in the assay with UACC-62 melanoma; greater than 100 µM in the assay on T-47D breast; 34.5 µM in the assay with M14 melanoma. Further, the TGI turned out to be 36 µM with HOP-62 NSCLC; 32.1 µM with SF-295 CNS; 36.3 µM in the assay on HT29 colon; 35.6 µM in the assay on EKVX NSCLC; 31.8 µM in the assay with RPMI-8226 leukemia; 42.9 µM in the assay on UO-31 renal. In addition, the TGI was 34.9 µM with PC-3 prostate; 39 µM with HCC-2998 colon; 32 µM in the assay with SK-OV-3 ovarian; 41.3 µM in the assay with SNB-19 CNS; 34.2 µM in the assay on BT-549 breast; 37 µM in the assay with SF-268 CNS.
As for `COC1(OC)c2no[n+]([O-])c2CCC1O` (stereo not drawn), the TGI in the assay on MCF7 breast, in the assay on MOLT-4 leukemia, in the assay with ACHN renal, in the assay on NCI-H226 lung, in the assay with UACC-62 melanoma and in the assay with T-47D breast was greater than 100 µM in each case. Besides, the TGI in the assay with M14 melanoma, in the assay with HOP-62 NSCLC, with SF-295 CNS, in the assay with HT29 colon, in the assay on EKVX NSCLC and in the assay on RPMI-8226 leukemia was greater than 100 µM throughout. Also, the TGI in the assay with UO-31 renal, with PC-3 prostate, with HCC-2998 colon, in the assay on SK-OV-3 ovarian, in the assay on SNB-19 CNS and with SF-268 CNS was greater than 100 µM throughout.
Take `Nc1ncnn2c(C3OC(CO)C(O)C3O)ccc12` (stereo not drawn): the TGI in the assay with MOLT-4 leukemia was determined as 0.455 µM; with ACHN renal it was 0.645 µM; with NCI-H226 lung, 0.866 µM; in the assay on UACC-62 melanoma, 0.358 µM; with T-47D breast it was 6.93 µM; in the assay with M14 melanoma, 0.413 µM. The TGI with HOP-62 NSCLC was determined as 1.48 µM; in the assay with SF-295 CNS, 3.01 µM; in the assay on HT29 colon it was 1.45 µM; in the assay on EKVX NSCLC it was 4.23 µM; in the assay on RPMI-8226 leukemia, 0.467 µM; in the assay with UO-31 renal, 0.494 µM. In addition, the TGI was 0.762 µM in the assay with PC-3 prostate; 2.71 µM in the assay on HCC-2998 colon; 25.4 µM in the assay on SNB-19 CNS; 0.789 µM with BT-549 breast; 1.99 µM in the assay with SF-268 CNS.
For the molecule `CCOC(CN(C)C(=O)Nc1cccc2ccccc12)OCC`, the TGI with MCF7 breast, with MOLT-4 leukemia, in the assay with ACHN renal, with NCI-H226 lung, in the assay with UACC-62 melanoma and with T-47D breast was greater than 10 µM throughout. The TGI in the assay with M14 melanoma, in the assay with HOP-62 NSCLC, with SF-295 CNS, in the assay on HT29 colon, with EKVX NSCLC and with RPMI-8226 leukemia was greater than 10 µM in each case. For the same molecule, the TGI with UO-31 renal, in the assay with PC-3 prostate, in the assay with HCC-2998 colon, in the assay with SK-OV-3 ovarian, in the assay with SNB-19 CNS and in the assay on SF-268 CNS was greater than 10 µM throughout.
As to `C=CCNC1=C2C[C@@H](C)C[C@@H](OC)[C@H](OC(=O)CCN)[C@H](C)/C=C(\C)[C@@H](OC(N)=O)[C@H](OC)/C=C\C=C(/C)C(=O)NC(=CC1=O)C2=O`, the TGI in the assay with MCF7 breast turned out to be 7.71 µM; with MOLT-4 leukemia, 12.7 µM; in the assay on ACHN renal, 25.2 µM; with UACC-62 melanoma it was 12.3 µM; in the assay on T-47D breast, 15.5 µM; in the assay with M14 melanoma, 17.3 µM. The TGI with HOP-62 NSCLC was found to be 17.5 µM; in the assay with SF-295 CNS, 14.1 µM; in the assay with HT29 colon, 18.7 µM; with EKVX NSCLC, 36.4 µM; in the assay on RPMI-8226 leukemia it was 32.5 µM; in the assay on UO-31 renal it was 24.2 µM. Also, the TGI worked out at 3.61 µM in the assay on HCC-2998 colon; 11 µM with SK-OV-3 ovarian; 20.9 µM in the assay on SNB-19 CNS; 21.2 µM in the assay on BT-549 breast; 25.5 µM in the assay with SF-268 CNS.

These data come from PubChem BioAssay (NCI).
